From ChEMBL document CHEMBL5108059, “Discovery of 2-Methyl-2-(4-(2-methyl-8-(1H-pyrrolo[2,3-b]pyridin-6-yl)-1H-naphtho[1,2-d]imidazol-1-yl)phenyl)propanenitrile as a Novel PI3K/mTOR Inhibitor with Enhanced Antitumor Efficacy In Vitro and In Vivo” (J Med Chem, 2022)
Activity calls are given as the source filed them. No cut-off for these calls is given here.

Experiments:
[1] = biological target: Serine/threonine-protein kinase mTOR (Homo sapiens, UniProt P42345); test: Inhibition of N-terminal FLAG-tagged recombinant human mTOR (1362 to end residue) using ULight-4EBP1 peptide as substrate incubated for 30 mins in presence of ATP by Lance ultra assay
HeLa [2] = test: Induction of apoptosis in human HeLa cells assessed as late apoptotic cells at 1.25 uM incubated for 36 hrs by Annexin V-FITC/PI staining based flow cytometric analysis (reference value: 1.4 %); assay type: functional
HeLa [3] = test: Inhibition of colony formation in human HeLa cells assessed as reduction in colony forming ability at 0.625 uM incubated for 15 days by crystal violet staining based analysis; assay type: functional; conditions: 360 h, time 15 day
HeLa [4] = test: Inhibition of colony formation in human HeLa cells assessed as reduction in colony forming ability incubated for 15 days by crystal violet staining based analysis; assay type: functional, cell-based; conditions: dose 0.15625-1.25 µM, time 15.0 day, DDE = dose-dependent effect
[5] = Toxicity in BALB/c nude mouse xenografted with human HeLa cells assessed as pathological changes in liver at 60 mg/kg, IG administered daily for 30 days by hematoxylin and eosin staining based microscopic analysis; assay type: organism-based; conditions: in vivo, po, 720 h, time 30 day
[6] = Tmax in Sprague-Dawley rat at 10 mg/kg, po measured for 24 hrs by LC-MS/MS analysis; assay type: ADME, organism-based; conditions: in vivo
[7] = Half life in Sprague-Dawley rat at 1 mg/kg, iv measured for 24 hrs by LC-MS/MS analysis; assay type: ADME, organism-based; conditions: in vivo
[8] = biological target: Phosphatidylinositol 4,5-bisphosphate 3-kinase catalytic subunit alpha isoform (Homo sapiens, UniProt P42336); test: Inhibition of PI3Kalpha (unknown origin) using PIP2 as substrate incubated for 1 hr in presence of ATP by Kinase Glo luminescence assay
HeLa [9] = test: Induction of apoptosis in human HeLa cells assessed as early apoptotic cells at 0.15625 uM incubated for 36 hrs by Annexin V-FITC/PI staining based flow cytometric analysis (reference value: 2.02 %); assay type: functional; conditions: 0.1562 µM
HeLa [10] = test: Inhibition of PI3K/mTOR signalling pathway in human HeLa cells assessed as inhibition of Akt phosphorylation at Ser473 residue incubated for 24 hrs by Western blot analysis; assay type: cell-based; conditions: dose 0.3125-2.5 µM, DDE = dose-dependent effect
[11] = biological target: T1, Phosphatidylinositol 4,5-bisphosphate 3-kinase catalytic subunit beta isoform (Homo sapiens, UniProt P42338); test: Inhibition of PI3Kbeta (unknown origin) using PIP2 as substrate incubated for 1 hr in presence of ATP by Kinase Glo luminescence assay
HeLa [12] = test: Antitumor activity against human HeLa cells xenografted in BALB/c nude mouse assessed as tumor growth inhibition at 30 mg/kg, IG administered daily for 30 days and measured every 2 days relative to control; assay type: functional; conditions: po, 720 h, time 30 day, read-out: TGI
[13] = biological target: T1, Phosphatidylinositol 4,5-bisphosphate 3-kinase catalytic subunit beta isoform; test: Inhibition of PI3Kbeta (unknown origin) using L-alpha-phosphatidylinositol as substrate incubated for 60 mins in presence of ATP by Kinase Glo luminescence assay
L02 = test: Cytotoxicity against human L02 cells assessed as reduction in cell viability at 0.3125 to 10 uM incubated for 48 to 72 hrs by MTT assay; assay type: toxicity, cell-based; conditions: l02, 10 µM, dose lower 0.3125 µM, time lower 48 hrs, dose upper 10 µM, time upper 72 hrs
[14] = Volume of distribution at steady state in Sprague-Dawley rat at 1 mg/kg, iv measured for 24 hrs by LC-MS/MS analysis; assay type: ADME, organism-based; conditions: in vivo, read-out: Vdss
[15] = Toxicity in BALB/c nude mouse xenografted with human HeLa cells assessed as pathological changes in kidney at 60 mg/kg, IG administered daily for 30 days by hematoxylin and eosin staining based microscopic analysis; assay type: organism-based; conditions: in vivo, po, 720 h, time 30 day
HeLa [16] = test: Inhibition of PI3K/mTOR signalling pathway in human HeLa cells assessed as inhibition of S6 protein phosphorylation incubated for 24 hrs by Western blot analysis; assay type: cell-based; conditions: dose 0.3125-2.5 µM, DDE = dose-dependent effect
[17] = Half life in Sprague-Dawley rat at 10 mg/kg, po measured for 24 hrs by LC-MS/MS analysis; assay type: ADME, organism-based; conditions: in vivo
SW-620 [18] = test: Antitumor activity against human SW620 cells xenografted in BALB/c nude mouse assessed as tumor growth inhibition at 15 mg/kg, IG administered daily for 30 days and measured every 2 days relative to control; assay type: functional; conditions: SW-620, po, 720 h, time 30 day, read-out: TGI
HeLa [19] = test: Induction of apoptosis in human HeLa cells assessed as dead cells at 1.25 uM incubated for 36 hrs by Annexin V-FITC/PI staining based flow cytometric analysis (reference value: 0.44 %); assay type: functional
SW-620 [20] = test: Induction of cell cycle arrest in human SW620 cells assessed as accumulation of cells at G0/G1 phase measured after 24 hrs by propidium iodide staining based flow cytometry analysis; assay type: functional; conditions: dose 0.15625-2.5 µM, DDE = dose-dependent effect
HeLa [21] = test: Induction of apoptosis in human HeLa cells assessed as dead cells at 0.3125 uM incubated for 36 hrs by Annexin V-FITC/PI staining based flow cytometric analysis (reference value: 0.44 %); assay type: functional
[22] = Toxicity in BALB/c nude mouse xenografted with human SW620 cells assessed as lethality at 15 to 60 mg/kg, IG administered daily for 30 days and measured every 2 days; assay type: organism-based, SW-620; conditions: in vivo, po, 720 h, dose 15-60 mg/kg, time 30 day
SW-620 [23] = test: Antitumor activity against human SW620 cells xenografted in BALB/c nude mouse assessed as tumor growth inhibition at 60 mg/kg, IG administered daily for 30 days and measured every 2 days relative to control; assay type: functional; conditions: SW-620, po, 720 h, time 30 day, read-out: TGI
Mus musculus = test: In vivo inhibition of PI3K/mTOR signalling pathway in BALB/c nude mouse xenografted with human HeLa cells assessed as downregulation of pS6 protein expression in tumor at 15 to 60 mg/kg, IG administered daily for 30 days; assay type: functional, organism-based; conditions: dose 15-60 mg/kg, time 30.0 day

T1 sequence (P42338 whole entry, canonical isoform): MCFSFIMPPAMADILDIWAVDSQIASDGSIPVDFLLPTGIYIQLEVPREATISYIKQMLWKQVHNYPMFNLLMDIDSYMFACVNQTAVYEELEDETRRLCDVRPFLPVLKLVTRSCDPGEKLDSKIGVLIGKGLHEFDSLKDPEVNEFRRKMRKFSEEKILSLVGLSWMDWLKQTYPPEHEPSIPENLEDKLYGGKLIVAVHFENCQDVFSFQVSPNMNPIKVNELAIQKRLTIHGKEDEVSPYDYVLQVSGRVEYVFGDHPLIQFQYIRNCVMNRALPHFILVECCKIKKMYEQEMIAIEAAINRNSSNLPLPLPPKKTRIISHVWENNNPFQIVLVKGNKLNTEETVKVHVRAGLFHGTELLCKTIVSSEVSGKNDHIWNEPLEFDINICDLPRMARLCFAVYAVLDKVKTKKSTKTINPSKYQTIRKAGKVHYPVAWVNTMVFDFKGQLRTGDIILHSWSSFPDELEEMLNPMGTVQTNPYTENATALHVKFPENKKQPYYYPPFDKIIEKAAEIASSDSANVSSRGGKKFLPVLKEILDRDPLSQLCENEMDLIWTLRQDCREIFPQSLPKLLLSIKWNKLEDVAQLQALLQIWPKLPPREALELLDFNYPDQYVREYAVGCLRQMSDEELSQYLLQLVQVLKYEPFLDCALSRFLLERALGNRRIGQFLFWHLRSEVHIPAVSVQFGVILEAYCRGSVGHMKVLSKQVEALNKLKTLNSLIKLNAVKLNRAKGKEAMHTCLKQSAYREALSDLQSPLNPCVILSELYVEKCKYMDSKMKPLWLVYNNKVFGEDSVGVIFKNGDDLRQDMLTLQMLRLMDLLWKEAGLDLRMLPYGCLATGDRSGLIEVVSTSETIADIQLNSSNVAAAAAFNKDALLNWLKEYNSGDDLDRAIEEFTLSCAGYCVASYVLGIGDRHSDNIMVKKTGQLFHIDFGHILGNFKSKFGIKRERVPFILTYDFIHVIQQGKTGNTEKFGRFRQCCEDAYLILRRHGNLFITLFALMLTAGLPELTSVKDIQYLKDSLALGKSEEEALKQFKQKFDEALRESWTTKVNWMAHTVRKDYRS
Sequence of Phosphatidylinositol 4,5-bisphosphate 3-kinase catalytic subunit alpha isoform (P42336 whole entry, canonical isoform): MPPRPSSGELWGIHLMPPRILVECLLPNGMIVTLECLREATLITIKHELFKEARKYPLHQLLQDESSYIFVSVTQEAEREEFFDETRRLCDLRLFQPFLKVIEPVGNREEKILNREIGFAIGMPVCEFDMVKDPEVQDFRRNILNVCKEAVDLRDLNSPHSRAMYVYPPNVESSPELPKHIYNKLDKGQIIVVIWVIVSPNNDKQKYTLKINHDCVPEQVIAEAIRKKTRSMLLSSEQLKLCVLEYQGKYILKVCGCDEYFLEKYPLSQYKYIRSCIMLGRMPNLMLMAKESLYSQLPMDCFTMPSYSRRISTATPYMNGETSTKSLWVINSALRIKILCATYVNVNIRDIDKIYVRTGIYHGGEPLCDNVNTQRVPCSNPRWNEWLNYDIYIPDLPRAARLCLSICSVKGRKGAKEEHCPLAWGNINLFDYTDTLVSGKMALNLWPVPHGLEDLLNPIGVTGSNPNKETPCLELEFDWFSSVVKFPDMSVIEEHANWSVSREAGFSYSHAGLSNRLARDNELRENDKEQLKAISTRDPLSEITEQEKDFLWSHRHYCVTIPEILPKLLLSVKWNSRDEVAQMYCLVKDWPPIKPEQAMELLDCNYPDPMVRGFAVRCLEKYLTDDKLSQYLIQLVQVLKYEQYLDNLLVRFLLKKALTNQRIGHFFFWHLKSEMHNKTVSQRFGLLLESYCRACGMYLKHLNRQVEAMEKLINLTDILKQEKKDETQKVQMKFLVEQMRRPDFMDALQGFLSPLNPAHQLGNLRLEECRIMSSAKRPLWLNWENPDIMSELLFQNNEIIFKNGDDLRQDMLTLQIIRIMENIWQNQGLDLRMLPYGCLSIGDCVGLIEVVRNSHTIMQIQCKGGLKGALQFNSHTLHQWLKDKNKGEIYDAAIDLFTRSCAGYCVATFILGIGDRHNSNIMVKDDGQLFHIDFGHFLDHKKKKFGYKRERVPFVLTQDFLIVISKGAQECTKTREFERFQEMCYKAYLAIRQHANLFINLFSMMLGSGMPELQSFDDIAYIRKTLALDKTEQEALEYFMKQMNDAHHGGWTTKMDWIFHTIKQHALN

Cc1nc2cnc3ccc(-c4cnc5[nH]ccc5c4)cc3c2n1-c1ccc(C(C)(C)C#N)nc1
IC50 [1]: 21.3 nM | Activity (HeLa [2]): 23.32% | inhibition at 0.625 µM (HeLa [3]): 100% | inhibition (HeLa [4]): Dde | Activity [5]: Non-Toxic | Tmax [6]: 0.75 h | half-life [7]: 1.16 h | IC50 [8]: 3.5 nM | Activity (HeLa [9]): 4.18% | inhibition (HeLa [10]): Dde | IC50 [11]: 108 nM | inhibition in vivo at 30 mg/kg (HeLa [12]): 73.5% | IC50 [13]: 75 nM | Activity (L02): Non-Toxic | Vd [14]: 1.53 L/kg | Activity [15]: Non-Toxic | inhibition (HeLa [16]): Dde | t1/2 [17]: 2.6 h | inhibition in vivo at 15 mg/kg (SW-620 [18]): 60.6% | Activity (HeLa [19]): 7.4% | Activity (SW-620 [20]): Dde | Activity (HeLa [21]): 0.84% | Activity [22]: Non-Toxic | inhibition in vivo at 60 mg/kg (SW-620 [23]): 81% | inhibition (Mus musculus): Active
